In series [1] the test system is HeLa. The series is described as follows: Antiproliferative activity against human HeLa cells assessed as cell growth inhibition at 10 uM incubated for 24 hrs by CCK-8 assay relative to control. In kind it is functional. Also noted: scale not given: the % may be the effect or the level left. (Formazan colour is commonly taken as a measure of viable cells.)
The subject of series [2] is L929. Briefly: Induction of apoptosis in mouse L929 cells assessed as necrotic cells at 10 uM incubated for 24 hrs by Annexin V-PE staining based flow cytometry analysis (reference value: 0.00%). In kind it is functional. A general note: Flow cytometry measures light scatter and fluorescence of single cells or particles in a stream.
Series [3] relates to L929. The series is described as follows: Cytotoxicity against mouse L929 cells assessed as reduction in dead cells at 10 uM incubated for 24 hrs by calcein-AM/PI staining based fluorescence microscopic analysis relative to control (reference value: 0.38%). Details: scale not given: the % may be the effect or the level left. It is filed as toxicity, cell-based. The following applies: l929, 24 h.

Series [4] deals with L929. Briefly: Induction of apoptosis in mouse L929 cells assessed as early apoptotic cells at 10 uM incubated for 24 hrs by Annexin V-PE staining based flow cytometry analysis (reference value: 1.47%). It is filed as functional.
The test system of series [5] is HeLa. The series is described as follows: Antiproliferative activity against human HeLa cells assessed as reduction in live cells at 10 uM incubated for 24 hrs by calcein-AM/PI staining based fluorescence microscopic analysis relative to control (reference value: 3.78%). It is filed as functional. Also noted: scale not given: the % may be the effect or the level left.

Series [6] relates to HeLa. The series is described as follows: Induction of apoptosis in human HeLa cells assessed as necrotic cells at 10 uM incubated for 24 hrs by Annexin V-PE staining based flow cytometry analysis (reference value: 0.00%). In kind it is functional.
Series [7] concerns HeLa. The series is described as follows: Induction of apoptosis in human HeLa cells assessed as viable cells at 10 uM incubated for 24 hrs by Annexin V-PE staining based flow cytometry analysis (reference value: 97.43%). It is filed as functional. The following applies: read-out: Activity.
The subject of series [8] is HeLa. Briefly: Induction of apoptosis in human HeLa cells assessed as early apoptotic cells at 10 uM incubated for 24 hrs by Annexin V-PE staining based flow cytometry analysis (reference value: 2.55%). In kind it is functional.
Series [9] relates to L929. Briefly: Induction of apoptosis in mouse L929 cells assessed as viable cells at 10 uM incubated for 24 hrs by Annexin V-PE staining based flow cytometry analysis (reference value: 98%). In kind it is functional. The following applies: read-out: Activity.
In series [10] the test system is L929. The series is described as follows: Cytotoxicity against mouse L929 cells assessed as reduction in live cells at 10 uM incubated for 24 hrs by calcein-AM/PI staining based fluorescence microscopic analysis relative to control (reference value: 8.65%). It is filed as toxicity, cell-based. Details: scale not given: the % may be the effect or the level left. The following applies: l929, 24 h.

Series [11] deals with HeLa. Briefly: Induction of apoptosis in human HeLa cells assessed as late apoptotic cells at 10 uM incubated for 24 hrs by Annexin V-PE staining based flow cytometry analysis (reference value: 0.02%). In kind it is functional.
Series [12] has as its system L929. Briefly: Induction of apoptosis in mouse L929 cells assessed as late apoptotic cells at 10 uM incubated for 24 hrs by Annexin V-PE staining based flow cytometry analysis (reference value: 0.53%). In kind it is functional.
In series [13] the test system is HeLa. The series is described as follows: Antiproliferative activity against human HeLa cells assessed as reduction in dead cells at 10 uM incubated for 24 hrs by calcein-AM/PI staining based fluorescence microscopic analysis relative to control (reference value: 0.15%). Also noted: scale not given: the % may be the effect or the level left. It is filed as functional.

Series [14] in a line: Cytotoxicity against mouse L929 cells assessed as cell growth inhibition at 10 uM incubated for 24 hrs by CCK-8 assay relative to control. It is filed as toxicity, cell-based. The following applies: read-out: Activity.

As for `C=CCCC(=O)OC[C@]12CC[C@@H](C(=C)C)[C@@H]1[C@H]1CC[C@@H]3[C@@]4(C)CC[C@H](O)C(C)(C)[C@@H]4CC[C@@]3(C)[C@]1(C)CC2`, the Activity in the series on HeLa [1] is given as 37%; in the series on L929 [2] it was 0%; in the series with L929 [3] it was 2.83%; in the series on L929 [4], 9.38%; in the series on HeLa [5], 1.4%; with HeLa [6], 0.53%. The Activity in the series with HeLa [8] was 10.95%; with L929 [10], 2.15%; in the series on HeLa [11], 30.3%; in the series with L929 [12], 5.86%; in the series on HeLa [13], 1.02%. Moreover, the viability at 10 µM was 58.2% in the series on HeLa [7] and 84.8% in the series with L929 [9]. In addition, the inhibition at 24 h, 10 µM in series [14] was found to be 29%.
Turning to `C=CCCCCCCCCC(=O)OC[C@]12CC[C@@H](C(=C)C)[C@@H]1[C@H]1CC[C@@H]3[C@@]4(C)CC[C@H](O)C(C)(C)[C@@H]4CC[C@@]3(C)[C@]1(C)CC2`, the Activity with HeLa [1] is listed as 55%; in the series on L929 [2], 1.29%; with L929 [3], 1.77%; with L929 [4], 0.75%; in the series with HeLa [5] it was 2.03%; with HeLa [6] it was 1.41%. Besides, the Activity is given as 0.98% in the series with HeLa [8]; 4.65% with L929 [10]; 18.58% in the series on HeLa [11]; 4.55% in the series with L929 [12]; 0.69% with HeLa [13]. The viability at 10 µM in the series on HeLa [7] came to 79%; in the series with L929 [9] it was 82%. In addition, the inhibition at 24 h, 10 µM in series [14] came to 47%.
As for `C/C1=C/CCCCCCCCC(=O)OC[C@]23CC[C@@H]1[C@@H]2[C@H]1CC[C@@H]2[C@@]4(C)CC[C@H](O)C(C)(C)[C@@H]4CC[C@@]2(C)[C@]1(C)CC3`, the Activity is given as 5.18% in the series on L929 [2]; 2.1% in the series on L929 [3]; 12.6% in the series with L929 [4]; 1.29% with HeLa [5]; 0.61% in the series on HeLa [6]; 2.66% with HeLa [8]. The Activity with L929 [10] is recorded as 3.67%; in the series with HeLa [11], 26.22%; with L929 [12], 5.04%; in the series with HeLa [13], 0.91%. The results for the viability at 10 µM in the series with HeLa [7] and in the series with L929 [9] were 70.5% and 77.2%, respectively.
`C/C1=C/CCC(=O)OC[C@]23CC[C@@H]1[C@@H]2[C@H]1CC[C@@H]2[C@@]4(C)CC[C@H](O)C(C)(C)[C@@H]4CC[C@@]2(C)[C@]1(C)CC3`: the Activity in the series with L929 [2] is 21.59%; in the series on L929 [3] it was 5.76%; in the series with L929 [4] it was 0.12%; in the series on HeLa [5] it was 0.46%; in the series with HeLa [6], 0.65%; in the series on HeLa [8], 5.09%. For the same molecule, the Activity with L929 [10] is 1.71%; with HeLa [11], 62.84%; with L929 [12], 72.6%; with HeLa [13] it was 1.78%. Also, the figures for the viability at 10 µM in the series with HeLa [7] and in the series on L929 [9] were 31.4% and 5.69%, respectively.
Take `C=C(C)[C@@H]1CC[C@]2(CO)CC[C@]3(C)[C@H](CC[C@@H]4[C@@]5(C)CC[C@H](O)C(C)(C)[C@@H]5CC[C@]43C)[C@@H]12` [BETULIN]: the Activity with HeLa [1] is listed as 58%; with L929 [2], 0%; in the series with L929 [3], 0.79%; in the series with L929 [4] it was 2.94%; with HeLa [5] it was 2.8%; with HeLa [6], 0%. Moreover, the Activity with HeLa [8] is listed as 12.16%; with L929 [10] it was 5.19%; in the series on HeLa [11], 0.03%; in the series on L929 [12], 0.61%; in the series with HeLa [13], 0.53%. Besides, the viability at 10 µM in the series on HeLa [7] is 87.8%; with L929 [9] it was 96.5%. Moreover, in series [14], the inhibition at 24 h, 10 µM was 55%.
